In US11339130B1 (Blade Therapeutics, Inc., priority 2016, dated 2022):
pIC50: −log10 of the molar value. Read-outs that look alike come from different tables or passages of the source.

How the values were obtained:
Type in all cases: biochemical
Human Calpain 1/NS1 = target: T1, Human Calpain 1/NS1 (Homo sapiens, UniProt P07384); assay: Calpain inhibition continuous fluorescence (FRET) assay, Human Calpain 1/NS1; details: read-out: Human Calpain 1/NS1 IC50
T1 sequence (P07384 1-714): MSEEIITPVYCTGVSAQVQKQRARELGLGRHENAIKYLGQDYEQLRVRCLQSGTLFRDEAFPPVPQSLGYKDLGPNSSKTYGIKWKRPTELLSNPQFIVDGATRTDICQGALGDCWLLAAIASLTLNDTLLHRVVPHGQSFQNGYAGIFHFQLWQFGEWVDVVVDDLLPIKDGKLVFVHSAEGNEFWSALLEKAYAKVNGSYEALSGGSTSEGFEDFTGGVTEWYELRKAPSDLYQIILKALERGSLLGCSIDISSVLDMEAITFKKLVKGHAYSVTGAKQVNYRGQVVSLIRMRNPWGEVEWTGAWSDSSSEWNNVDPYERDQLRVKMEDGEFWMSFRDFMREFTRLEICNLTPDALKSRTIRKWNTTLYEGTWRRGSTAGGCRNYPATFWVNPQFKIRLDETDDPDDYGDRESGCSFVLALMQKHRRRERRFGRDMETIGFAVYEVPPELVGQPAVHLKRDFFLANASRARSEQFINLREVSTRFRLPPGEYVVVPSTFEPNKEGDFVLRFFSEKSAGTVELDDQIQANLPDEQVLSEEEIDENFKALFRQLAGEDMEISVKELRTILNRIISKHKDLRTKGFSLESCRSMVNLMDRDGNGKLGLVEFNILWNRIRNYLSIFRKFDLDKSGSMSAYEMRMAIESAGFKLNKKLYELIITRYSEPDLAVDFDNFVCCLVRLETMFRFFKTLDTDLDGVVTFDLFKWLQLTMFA
T1 sequence (P04632 1-268 partner): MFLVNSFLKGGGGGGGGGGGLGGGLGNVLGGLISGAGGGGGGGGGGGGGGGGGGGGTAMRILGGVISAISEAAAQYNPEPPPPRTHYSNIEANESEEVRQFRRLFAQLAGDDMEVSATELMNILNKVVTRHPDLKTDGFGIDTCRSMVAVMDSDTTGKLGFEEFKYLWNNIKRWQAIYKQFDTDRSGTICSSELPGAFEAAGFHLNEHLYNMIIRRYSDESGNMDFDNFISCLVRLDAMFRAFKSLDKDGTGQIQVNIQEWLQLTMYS
Procedure, shortened: (§1)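 Continuous FRET read (ex 490/em 520 nm, 10 min) of calpain 1, 2 or 9 cleaving an internally quenched 5-FAM peptide, triggered by substrate with CaCl2 after enzyme–inhibitor incubation at ambient 25 °C, pH 7.5 Tris/NaCl/DTT buffer. IC50 from initial rates (1-5 min) via 4-parameter fit.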

Human Calpain 2/NS1 = target: T2, Human Calpain 2/NS1 (Homo sapiens, UniProt P17655); assay: Calpain inhibition continuous fluorescence (FRET) assay, Human Calpain 2/NS1; details: read-out: Human Calpain 2/NS1 IC50
T2 sequence (P17655 1-700): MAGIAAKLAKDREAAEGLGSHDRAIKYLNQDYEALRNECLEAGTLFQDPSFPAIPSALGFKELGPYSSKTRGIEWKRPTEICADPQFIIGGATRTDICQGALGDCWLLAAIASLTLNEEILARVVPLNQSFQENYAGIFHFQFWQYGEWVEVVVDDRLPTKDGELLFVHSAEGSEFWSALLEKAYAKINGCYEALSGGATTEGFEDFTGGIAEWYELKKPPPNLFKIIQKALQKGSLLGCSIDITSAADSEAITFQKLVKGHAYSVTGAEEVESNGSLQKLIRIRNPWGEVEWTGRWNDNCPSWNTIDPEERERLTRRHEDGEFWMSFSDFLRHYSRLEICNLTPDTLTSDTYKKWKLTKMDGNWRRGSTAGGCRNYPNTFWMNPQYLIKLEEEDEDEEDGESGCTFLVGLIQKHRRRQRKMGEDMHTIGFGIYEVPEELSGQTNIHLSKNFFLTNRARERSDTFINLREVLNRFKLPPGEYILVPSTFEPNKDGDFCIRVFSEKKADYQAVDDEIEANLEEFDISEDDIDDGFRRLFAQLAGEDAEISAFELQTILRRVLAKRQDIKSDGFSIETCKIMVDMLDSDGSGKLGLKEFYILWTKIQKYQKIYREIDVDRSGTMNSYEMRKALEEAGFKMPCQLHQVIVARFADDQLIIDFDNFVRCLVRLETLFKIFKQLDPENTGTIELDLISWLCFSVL
T2 sequence (P04632 1-268 partner): T1 sequence (P04632 1-268 partner)
Procedure, shortened: as §1

Human Calpain 9/NS1 = target: T3, Human Calpain 9/NS1 (Homo sapiens, UniProt O14815); assay: Calpain inhibition continuous fluorescence (FRET) assay, Human Calpain 9/NS1; details: read-out: Human Calpain 9/NS1 IC50
T3 sequence (O14815 1-690): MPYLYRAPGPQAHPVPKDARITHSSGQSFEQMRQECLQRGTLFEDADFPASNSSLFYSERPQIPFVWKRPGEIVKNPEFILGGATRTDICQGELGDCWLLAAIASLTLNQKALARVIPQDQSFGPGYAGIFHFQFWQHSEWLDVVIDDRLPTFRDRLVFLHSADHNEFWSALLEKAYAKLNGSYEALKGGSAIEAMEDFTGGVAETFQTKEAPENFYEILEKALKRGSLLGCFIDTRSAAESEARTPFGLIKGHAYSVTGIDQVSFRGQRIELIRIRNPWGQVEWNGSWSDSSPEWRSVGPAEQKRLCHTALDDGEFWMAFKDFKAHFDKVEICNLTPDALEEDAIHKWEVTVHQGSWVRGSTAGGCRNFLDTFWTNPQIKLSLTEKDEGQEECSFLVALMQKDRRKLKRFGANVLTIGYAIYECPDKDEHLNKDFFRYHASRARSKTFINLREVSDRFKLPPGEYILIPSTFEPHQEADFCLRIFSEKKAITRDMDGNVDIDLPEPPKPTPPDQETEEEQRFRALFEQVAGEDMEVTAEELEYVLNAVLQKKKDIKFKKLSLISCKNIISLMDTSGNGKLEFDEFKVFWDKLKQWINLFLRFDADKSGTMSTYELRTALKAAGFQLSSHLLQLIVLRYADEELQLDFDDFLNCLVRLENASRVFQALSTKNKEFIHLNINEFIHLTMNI
T3 sequence (P04632 1-268 partner): T1 sequence (P04632 1-268 partner)
Procedure, shortened: as §1

Row | Compound | pIC50 (Human Calpain 1/NS1; Column A) | pIC50 (Human Calpain 2/NS1; Column B) | pIC50 (Human Calpain 9/NS1; Column C) | pIC50 (Human Calpain 1/NS1) | pIC50 (Human Calpain 2/NS1) | pIC50 (Human Calpain 9/NS1)
1 | Cc1noc(-c2ccccc2)c1C(=O)N[C@@H](Cc1ccccc1)C(=O)C(=O)NCc1ccc(OC(F)(F)F)cc1 [Compound 247, (S)—N-(3,4-dioxo-1-phenyl-4-((4-(trifluoromethoxy)benzyl)amino)butan-2-yl)-3-methyl-5-phenylisoxazole-4-carboxamide] | 5.00 to 5.52 | 5.00 to 5.52 | 5.00 to 5.52 |  |  | 
2 | NC(=O)C(=O)[C@H](Cc1ccccc1)NC(=O)c1csnc1-c1ccccc1 [Compound 11, (S)—N-(4-amino-3,4-dioxo-1-phenylbutan-2-yl)-3-phenylisothiazole-4-carboxamide] | > 5.52 | > 5.52 | > 5.52 |  |  | 
3 | Cc1nc(-c2ccccc2)c(C(=O)N[C@@H](CC(C)(C)C)C(=O)C(N)=O)o1 [Compound 391, (S)—N-(1-amino-5,5-dimethyl-1,2-dioxohexan-3-yl)-2-methyl-4-phenyloxazole-5-carboxamide] |  |  |  | > 5.52 | > 5.52 | > 5.52
4 | Cn1cc(C(=O)NC(Cc2ccccc2)C(=O)C(N)=O)c(N2CCS(=O)(=O)CC2)n1 (stereo not drawn) [Compound 613, N-(4-amino-3,4-dioxo-1-phenylbutan-2-yl)-3-(1,1-dioxidothiomorpholino)-1-methyl-1H-pyrazole-4-carboxamide] |  |  |  | 5.00 to 5.52 | 5.00 to 5.52 | > 5.52
5 | O=C[C@H](Cc1ccccc1)NC(=O)c1scnc1-n1cc(-c2ccccc2)cn1 [Compound 21, (S)—N-(1-oxo-3-phenylpropan-2-yl)-4-(4-phenyl-1H-pyrazol-1-yl)thiazole-5-carboxamide] | > 5.52 | > 5.52 | > 5.52 |  |  | 
6 | NC(=O)C(=O)[C@H](Cc1ccccc1)NC(=O)c1conc1-c1ccccc1 [Compound 304, (S)—N-(4-amino-3,4-dioxo-1-phenylbutan-2-yl)-3-phenylisoxazole-4-carboxamide] | > 5.52 | > 5.52 | > 5.52 |  |  | 
7 | NC(=O)C(=O)[C@H](Cc1ccccc1)NC(=O)c1[nH]ncc1-c1ccccc1 [Compound 129, (S)—N-(4-amino-3,4-dioxo-1-phenylbutan-2-yl)-4-phenyl-1H-pyrazole-5-carboxamide] | 5.00 to 5.52 | < 5.00 | 5.00 to 5.52 |  |  | 
8 | Cc1cc(C(=O)N[C@@H](Cc2ccccc2)C(=O)C(=O)NC2CC2)n(-c2cncc3ccccc23)n1 [Compound 134, (S)—N-(4-(cyclopropylamino)-3,4-dioxo-1-phenylbutan-2-yl)-1-(isoquinolin-4-yl)-3-methyl-1H-pyrazole-5-carboxamide] | 5.00 to 5.52 | 5.00 to 5.52 | 5.00 to 5.52 |  |  | 
9 | NC(=O)C(=O)[C@H](Cc1ccccc1)NC(=O)c1scnc1-c1ccccn1 [Compound 109, (S)—N-(4-amino-3,4-dioxo-1-phenylbutan-2-yl)-4-(pyridin-2-yl)thiazole-5-carboxamide] | > 5.52 | > 5.52 | > 5.52 |  |  | 
10 | Cc1noc(-c2ccccc2)c1C(=O)N[C@@H](CC(C)C)C(=O)C(N)=O [Compound 35, (S)—N-(1-amino-5-methyl-1,2-dioxohexan-3-yl)-3-methyl-5-phenylisoxazole-4-carboxamide] | > 5.52 | > 5.52 | > 5.52 |  |  | 
11 | NC(=O)C(=O)C(Cc1ccccc1)NC(=O)c1cn(C(F)F)nc1-c1ccc2ccncc2c1 (stereo not drawn) [Compound 630, N-(4-amino-3,4-dioxo-1-phenylbutan-2-yl)-1-(difluoromethyl)-3-(isoquinolin-7-yl)-1H-pyrazole-4-carboxamide] |  |  |  | > 5.52 | > 5.52 | > 5.52
12 | O=C(NC1CC1)C(=O)[C@H](Cc1ccccc1)NC(=O)c1cncn1-c1nc2ccccc2[nH]1 [Compound 71, (S)-1-(1H-benzo[d]imidazol-2-yl)-N-(4-(cyclopropylamino)-3,4-dioxo-1-phenylbutan-2-yl)-1H-imidazole-5-carboxamide] | 5.00 to 5.52 | 5.00 to 5.52 | < 5.00 |  |  | 
13 | Cn1cc(C(=O)NC(Cc2ccccc2)C(=O)C(N)=O)c(N2CCOCC2)n1 (stereo not drawn) [Compound 614, N-(4-amino-3,4-dioxo-1-phenylbutan-2-yl)-1-methyl-3-morpholino-1H-pyrazole-4-carboxamide] |  |  |  | 5.00 to 5.52 | 5.00 to 5.52 | 5.00 to 5.52
14 | Cc1noc(-c2ccccc2)c1C(=O)N[C@@H](Cc1ccccc1)C(=O)C(=O)NCc1ccc(S(C)(=O)=O)cc1 [Compound 151, (S)-3-methyl-N-(4-((4-(methylsulfonyl)benzyl)amino)-3,4-dioxo-1-phenylbutan-2-yl)-5-phenylisoxazole-4-carboxamide] | > 5.52 | > 5.52 | > 5.52 |  |  | 
15 | O=C[C@H](Cc1ccccc1)NC(=O)c1cncn1-c1nc2ccccc2s1 [Compound 29, (S)-1-(benzo[d]thiazol-2-yl)-N-(1-oxo-3-phenylpropan-2-yl)-1H-imidazole-5-carboxamide] | > 5.52 | > 5.52 | > 5.52 |  |  | 
16 | Cc1cc(C(=O)N[C@@H](Cc2ccccc2)C(=O)C(N)=O)n(-c2cncc3ccccc23)n1 [Compound 133, (S)—N-(4-amino-3,4-dioxo-1-phenylbutan-2-yl)-1-(isoquinolin-4-yl)-3-methyl-1H-pyrazole-5-carboxamide] | > 5.52 | > 5.52 | > 5.52 |  |  | 
17 | Cc1cc(C(=O)N[C@@H](Cc2ccccc2)C(=O)C(=O)NC2CC2)nn1-c1nc(-c2ccccc2)cs1 [Compound 125, (S)—N-(4-(cyclopropylamino)-3,4-dioxo-1-phenylbutan-2-yl)-5-methyl-1-(4-phenylthiazol-2-yl)-1H-pyrazole-3-carboxamide] | < 5.00 | < 5.00 | < 5.00 |  |  | 
18 | NC(=O)C(=O)[C@H](Cc1ccccc1)NC(=O)c1scnc1-c1ccccc1 [Compound 18, (S)—N-(4-amino-3,4-dioxo-1-phenylbutan-2-yl)-4-phenyl thiazole-5-carboxamide] | > 5.52 | > 5.52 | > 5.52 |  |  | 
